From patent publication US20260151425A1, “COMPOSITIONS AND METHODS OF USE THEREOF” (SYNEDGEN, INC., priority 2020, published 2026)
Read-outs that look alike come from different tables or passages of the source.

Columns and labels:
[1] = system: M. abscessus subsp. bolletii NTM 0003; assay: MIC of CF NTM clinical isolates; assay type: cell-based; conditions: for CLSI clinical breakpoint category: NTM 0003; for MIC: M. abscessus subsp. bolletii NTM 0003
[2] = system: M. abscessus subsp. abscessus NTM 0079; assay: MIC of CF NTM clinical isolates; assay type: cell-based; conditions: for CLSI clinical breakpoint category: NTM 0079; for MIC: M. abscessus subsp. abscessus NTM 0079
[3] = system: MAC biofilm; assay: 2D MBEC checkerboard assay, antibiotic potentiation in biofilm; assay type: cell-based, Mycobacterium avium complex; conditions: for Fold Change: MBEC alone vs MBEC with PAAG 8 μg/mL; for MBEC: antibiotic alone; for MBEC with PAAG: antibiotic with PAAG at half of its MBEC (8 μg/mL)
Experimental: (§1) PAAG synergy with conventional antibiotics was determined by 2D checkerboard analysis. PAAG's antimicrobial activity and antibiotic potentiation in a biofilm were determined by minimum biofilm eradication concentration (MBEC) and 2D MBEC checkerboard assays to determine antibiotic potentiation with PAAG within a biofilm.
In addition, PAAG potentiates antibiotics against NTM in biofilms as measured with minimum biofilm eradication concentration (MBEC) (Table 3).

[4] = system: M. gordonae NTM 0274; assay: MIC of CF NTM clinical isolates; assay type: cell-based; conditions: for CLSI clinical breakpoint category: NTM 0274; for MIC: M. gordonae NTM 0274
[5] = system: M. avium complex NTM 0260; assay: MIC of CF NTM clinical isolates; assay type: cell-based; conditions: for CLSI clinical breakpoint category: NTM 0260; for MIC: M. avium complex NTM 0260
[6] = system: M. avium complex NTM 0813; assay: MIC of CF NTM clinical isolates; assay type: cell-based; conditions: for CLSI clinical breakpoint category: NTM 0813; for MIC: M. avium complex NTM 0813
[7] = system: M. abscessus subsp. abscessus NTM 0082; assay: MIC of CF NTM clinical isolates; assay type: cell-based; conditions: for CLSI clinical breakpoint category: NTM 0082; for MIC: M. abscessus subsp. abscessus NTM 0082
[8] = system: MAC NTM 0260; assay: 2D checkerboard analysis, antibiotic MIC with PAAG; assay type: cell-based, Mycobacterium avium complex; conditions: for Fold Change: MIC alone vs MIC with PAAG 8 μg/mL; for MIC: Mycobacterium avium
Experimental: as §1

[9] = system: MABSC biofilm; assay: 2D MBEC checkerboard assay, antibiotic potentiation in biofilm; assay type: cell-based, Mycobacterium abscessus complex; conditions: for Fold Change: MBEC alone vs MBEC with PAAG 128 μg/mL; for MBEC: antibiotic alone; for MBEC with PAAG: antibiotic with PAAG at half of its MBEC (128 μg/mL)
Experimental: as §1

[10] = system: MABSC NTM 0082; assay: 2D checkerboard analysis, antibiotic MIC with PAAG; assay type: cell-based, Mycobacterium abscessus complex; conditions: for Fold Change: MIC alone vs MIC with PAAG 128 μg/mL; for MIC: Mycobacteroides abscessus
Experimental: as §1

[11] = system: biofilm cultures of Mycobacteria isolates; assay: Static biofilm assay with crystal violet staining; assay type: cell-based; conditions: 48 hour biofilms treated for an hour; increasing dose of PAAG
Experimental: (§2) Biofilm cultures of Mycobacteria isolates were grown for 48 hours in static 96-well plates at 37 C on a static incubator. The biofilm cultures were treated using PAAG alone and in formulation with 1.38% glycerol for an hour. The MBEC assay measured the logarithmic reduction in the growth of biofilm by serial dilution and spot plate method. […] The static assay was used to measure the decrease in biofilm density as the dose of PAAG increases by staining each well with crystal violet and measuring the biofilm densities at 590 nm.
The biofilm biomass was quantified using crystal violet staining in static TCP biofilm assay.

[12] = system: NTM biofilms; assay: Optical measurement of biofilm thickness; assay type: cell-based; conditions: PAAG at 50, 100 and 200 μg/mL
Text: The biofilm thickness was optically measured assuming the Refractive Index (RI) of the biofilm was equal to water per Bakke & Olsson, et al., (1986).

[13] = system: MAC persister cells; assay: PAAG treatment of antibiotic induced NTM persisters; assay type: cell-based, Mycobacterium avium complex
Text: (§3) The cultures were then pelleted, washed free of antibiotics and resuspended in broth free of any antimicrobials (i.e., recovery phase).

[14] = system: MABSC cultures; assay: Modified time kill analysis with 7-day recovery phase; assay type: cell-based, Mycobacterium abscessus complex; conditions: PAAG 250 μg/mL
Experimental: For MABSC cultures, a modified time kill analysis was performed over a period of 12 days and included a 7-day recovery phase in antimicrobial free media post treatment. PAAG treatment led to eradication of MABSC cell population within 48 hours of treatment.

[15] = system: biofilm cultures of Mycobacteria isolates; assay: MBEC assay, logarithmic reduction of biofilm growth; assay type: cell-based; conditions: 48 hour biofilms treated for an hour; varies from strain to strain
Experimental: as §2

[16] = system: MABSC persister cells; assay: PAAG treatment of antibiotic induced NTM persisters; assay type: cell-based, Mycobacterium abscessus complex
Text: as §3

[17] = system: MAC cultures; assay: Modified time kill analysis with 7-day recovery phase; assay type: cell-based, Mycobacterium avium complex; conditions: PAAG 250 μg/mL
Experimental: For MAC cultures, a modified time kill analysis was performed over a period of 21 days and included a 7-day recovery phase in antimicrobial free media post treatment. PAAG treatment led to eradication of MAC cell population within 4 days of treatment.

[18] = Mycobacteroides abscessus, read-out: MIC
[19] = Mycobacterium gordonae, NTM0274, read-out: MIC
[20] = Mycobacterium avium, read-out: MIC
[21] = antibiotic alone, MAC NTM 0260, read-out: MIC
[22] = antibiotic alone, read-out: MIC
[23] = antibiotic with PAAG at half of its MIC (128 μg/mL), read-out: MIC with PAAG

| Compound | MIC [1, 18] [mg/L] | MIC [2, 18] [mg/L] | Fold Change [3] | MBEC [3] [µg/mL] | MBEC with PAAG [3] [µg/mL] | MIC [4, 19] [mg/L] | MIC [5, 20] [mg/L] | MIC [6, 20] [mg/L] | MIC [7, 18] [mg/L] | Fold Change ([8]; MAC NTM 0260) | MIC [8, 21] [mg/L] | MIC ([8]; read-out: MIC with PAAG) [mg/L] | Fold Change [9] | MBEC [9] [µg/mL] | MBEC with PAAG [9] [µg/mL] | Fold Change [10] | MIC [10, 22] [mg/L] | MIC [10, 23] [mg/L] | other results |
| --- | --- | --- | --- | --- | --- | --- | --- | --- | --- | --- | --- | --- | --- | --- | --- | --- | --- | --- | --- |
| CC[C@H]1OC(=O)[C@H](C)[C@@H](O[C@H]2C[C@@](C)(OC)[C@@H](O)[C@H](C)O2)[C@H](C)[C@@H](O[C@@H]2O[C@H](C)C[C@H](N(C)C)[C@H]2O)[C@](C)(O)C[C@@H](C)CN(C)[C@H](C)[C@@H](O)[C@]1(C)O [Azithromycin] | 32 | 32 | 8 | 8 | 1 | 2 | 2 | 2 | 32 | 4 | 2 | 0.5 | – | – | – | – | – | – | CLSI clinical breakpoint category ([1]; Azithromycin breakpoints): (R) (≥8 μg/mL (R)); CLSI clinical breakpoint category ([2]; Azithromycin breakpoints): (R) (≥8 μg/mL (R)); CLSI clinical breakpoint category ([4]; Azithromycin breakpoints): (I) (4 μg/mL (I)); CLSI clinical breakpoint category ([5]; Azithromycin breakpoints): (I) (4 μg/mL (I)); CLSI clinical breakpoint category ([6]; Azithromycin breakpoints): (I) (4 μg/mL (I)); CLSI clinical breakpoint category ([7]; Azithromycin breakpoints): (R) (≥8 μg/mL (R)) |
| NCC[C@H](O)C(=O)N[C@@H]1C[C@H](N)[C@@H](O[C@H]2O[C@H](CN)[C@@H](O)[C@H](O)[C@H]2O)[C@H](O)[C@H]1O[C@H]1O[C@H](CO)[C@@H](O)[C@H](N)[C@H]1O [Amikacin] | 4 | 8 | – | – | – | < 0.0625 | 2 | 2 | 8 | – | – | – | >512 | >1024 | 2 | 533 | 32 | 0.06 | CLSI clinical breakpoint category ([1]; Amikacin breakpoints): (S) (≤16 μg/mL (S)); CLSI clinical breakpoint category ([2]; Amikacin breakpoints): (R) (≥64 μg/mL (R) for Amikacin); CLSI clinical breakpoint category ([4]; Amikacin breakpoints): (S) (≤16 μg/mL (S)); CLSI clinical breakpoint category ([5]; Amikacin breakpoints): (S) (≤16 μg/mL (S)); CLSI clinical breakpoint category ([6]; Amikacin breakpoints): (S) (≤16 μg/mL (S)); CLSI clinical breakpoint category ([7]; Amikacin breakpoints): (R) (≥64 μg/mL (R) for Amikacin) |
| O=C(O)c1cn(C2CC2)c2cc(N3CCNCC3)c(F)cc2c1=O [Ciprofloxacin] | – | – | – | – | – | – | – | – | – | – | – | – | – | >1024 | – | – | – | – | – |
| poly(acetyl, arginyl) glucosamine [PAAG] | – | – | – | – | – | – | – | – | – | – | – | – | – | – | – | – | – | – | MIC [1]: 128 mg/L; MIC [2]: 250 mg/L; biofilm density (crystal violet, 590 nm) [11]: dose dependent reduction in the density of the bacteria; biofilm thickness [12]: reduction in BCC biofilm thickness in a dose dependent manner; bacterial viability at depth in biofilm ([12]; depths >5-10 μm): significantly decreased bacterial viability; MIC [4]: 32 mg/L; MIC [5]: 16 mg/L; MIC [6]: 16 mg/L; CFU/mL after PAAG treatment of persisters ([13]; MAC cultures surviving antibiotic treatment, PAAG for 10 days): 0 CFU/mL; regrowth of persisters after PAAG treatment ([13]; MAC, recovery in fresh broth 24 days): none of the persisters in either strain showed regrowth; MIC [7]: 250 mg/L; time to eradication of MABSC cell population ([14]; time kill over 12 days): ≤ 48 h; killing outcome ([14]; rapid growing MABSC): complete eradication; log reduction in biofilm compared to the control [15]: two to three log reduction; CFU/mL after PAAG treatment of persisters ([16]; MABSC cultures surviving antibiotic treatment, PAAG for 4 days): 0 CFU/mL; regrowth of persisters after PAAG treatment ([16]; MABSC, recovery in fresh broth 12 days): none of the persisters in either strain showed regrowth; time to eradication of MAC cell population ([17]; time kill over 21 days): ≤ 4 days; killing outcome ([17]; slow growing MAC): complete eradication |
| CO[C@H]1/C=C/O[C@@]2(C)Oc3c(C)c(O)c4c(O)c(c(/C=N/N5CCN(C)CC5)c(O)c4c3C2=O)NC(=O)/C(C)=C\C=C\[C@H](C)[C@H](O)[C@@H](C)[C@@H](O)[C@@H](C)[C@H](OC(C)=O)[C@@H]1C [Rifampicin] | 8 | 2 | >32 | 8 | <0.25 | 2 | 4 | 4 | 2 | 4 | 4 | 1 | >512 | >1024 | 2 | 21 | 2 | 0.06 | CLSI clinical breakpoint category ([1]; Rifampicin breakpoints): R (≥1 μg/mL (R) for Rifampicin); CLSI clinical breakpoint category ([2]; Rifampicin breakpoints): R (≥1 μg/mL (R) for Rifampicin); CLSI clinical breakpoint category ([4]; Rifampicin breakpoints): R (≥1 μg/mL (R) for Rifampicin); CLSI clinical breakpoint category ([5]; Rifampicin breakpoints): R (≥1 μg/mL (R) for Rifampicin); CLSI clinical breakpoint category ([6]; Rifampicin breakpoints): R (≥1 μg/mL (R) for Rifampicin); CLSI clinical breakpoint category ([7]; Rifampicin breakpoints): R (≥1 μg/mL (R) for Rifampicin) |
| CC[C@@H](CO)NCCN[C@@H](CC)CO [Ethambutol] | 8 | 32 | >32 | >8 | <0.25 | 2 | 2 | 2 | 32 | 2 | 2 | 1 | >512 | >1024 | 2 | 128 | 32 | 0.25 | CLSI clinical breakpoint category ([1]; Ethambutol breakpoints): R (≥2 μg/mL (R) for Ethambutol); CLSI clinical breakpoint category ([2]; Ethambutol breakpoints): R (≥2 μg/mL (R) for Ethambutol); CLSI clinical breakpoint category ([4]; Ethambutol breakpoints): R (≥2 μg/mL (R) for Ethambutol); CLSI clinical breakpoint category ([5]; Ethambutol breakpoints): R (≥2 μg/mL (R) for Ethambutol); CLSI clinical breakpoint category ([6]; Ethambutol breakpoints): R (≥2 μg/mL (R) for Ethambutol); CLSI clinical breakpoint category ([7]; Ethambutol breakpoints): R (≥2 μg/mL (R) for Ethambutol) |
